pEC50: −log10 of the molar value.
Experiments:
human CB1 receptors = human CB1 receptors (Homo sapiens (Human), UniProt P21554); experiment: cAMP assay, CHO cells expressing human CB1 receptors; format: cell-based; conditions: functional cAMP assay, CHO cells expressing human CB1; read-out: EC50 CB1 human
Method: (§1) CHO cells expressing human CB1 or CB2 receptors are seeded 17-24 hours prior to the experiment 50.000 cells per well in a black 96 well plate with flat clear bottom (Corning Costar #3904) in DMEM (Invitrogen No. 31331), 1×HT supplement, with 10% fetal calf serum and incubated at 5% CO2 and 37° C. in a humidified incubator. The growth medium was exchanged with Krebs Ringer Bicarbonate buffer with 1 mM IBMX and incubated at 30° C. for 30 min. Compounds were added to a final assay volume of 100 μl and incubated for 30 min at 30° C. […] The time-resolved energy transfer is measured by a TRF reader (Evotec Technologies GmbH), equipped with a ND:YAG laser as excitation source. The plate is measured twice with the excitation at 355 nm and at the emission with a delay of 100 ns and a gate of 100 ns, total exposure time 10 s at 730 (bandwidth30 nm) or 645 nm (bandwidth 75 nm), respectively. The FRET signal is calculated as follows: FRET=T730-Alexa730-P(T645-B645) with P=Ru730-B730/Ru645-B645, where T730 is the test well measured at 730 nM, T645 is the test well measured at 645 nm, B730 and B645 are the buffer controls at 730 nm and 645 nm, respectively. cAMP content is determined from the function of a standard curve spanning from 10 μM to 0.13 nM cAMP.
(§2) EC50 values were determined using Activity Base analysis (ID Business Solution, Limited).

human CB2 receptors = human CB2 receptors (Homo sapiens (Human), UniProt P34972); experiment: cAMP assay, CHO cells expressing human CB2 receptors; format: cell-based; conditions: functional cAMP assay, CHO cells expressing human CB2; read-out: EC50 CB2 human
Method: as §1, §2

Chain of human CB1 receptors (P21554 whole entry): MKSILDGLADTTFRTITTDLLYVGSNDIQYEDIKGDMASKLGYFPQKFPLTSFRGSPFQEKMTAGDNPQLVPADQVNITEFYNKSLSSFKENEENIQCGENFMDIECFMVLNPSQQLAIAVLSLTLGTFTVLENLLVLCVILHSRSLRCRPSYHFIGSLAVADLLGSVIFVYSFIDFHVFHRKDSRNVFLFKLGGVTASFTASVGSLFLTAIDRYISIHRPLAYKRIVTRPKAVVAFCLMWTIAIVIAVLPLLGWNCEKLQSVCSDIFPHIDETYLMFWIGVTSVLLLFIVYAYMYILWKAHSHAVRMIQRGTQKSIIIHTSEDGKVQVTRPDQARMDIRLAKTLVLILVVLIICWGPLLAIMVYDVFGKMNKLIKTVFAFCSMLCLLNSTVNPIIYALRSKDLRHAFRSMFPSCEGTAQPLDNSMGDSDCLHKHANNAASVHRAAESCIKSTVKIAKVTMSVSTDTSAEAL
Chain of human CB2 receptors (P34972 whole entry): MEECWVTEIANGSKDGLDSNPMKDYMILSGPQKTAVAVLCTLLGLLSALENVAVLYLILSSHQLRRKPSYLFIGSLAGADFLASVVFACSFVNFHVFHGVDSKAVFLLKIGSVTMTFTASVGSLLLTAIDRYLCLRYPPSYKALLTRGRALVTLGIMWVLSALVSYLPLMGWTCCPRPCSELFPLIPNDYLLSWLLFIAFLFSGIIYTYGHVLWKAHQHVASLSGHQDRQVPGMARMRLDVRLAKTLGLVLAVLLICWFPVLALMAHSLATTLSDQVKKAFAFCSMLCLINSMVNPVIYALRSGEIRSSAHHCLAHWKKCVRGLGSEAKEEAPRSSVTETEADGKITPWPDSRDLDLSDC

Structure (SMILES)	pEC50 (human CB1 receptors)	pEC50 (human CB2 receptors)
CC(C)(C)c1c[nH]c(-c2cc(OCC(F)(F)F)c(N3CC(F)(F)C3)cn2)n1 [Example 64, 2-(5-tert-butyl-1H-imidazol-2-yl)-5-(3,3-difluoroazetidin-1-yl)-4-(2,2,2-trifluoroethoxy)pyridine]	< 5.00	7.06
CC(C)(C)c1cnc(-c2cc(OCC3CC3)c(C3CC3)cn2)o1 [Example 65, 5-tert-butyl-2-[5-cyclopropyl-4-(cyclopropylmethoxy)pyridin-2-yl]-1,3-oxazole]	6.77	8.77
CC(C)C1(C)N=C(c2cc(OCC(F)(F)F)c(C3CC3)cn2)NC1=O (stereo not drawn) [Example 66, 2-[5-cyclopropyl-4-(2,2,2-trifluoroethoxy)pyridin-2-yl]-4-methyl-4-propan-2-yl-1H-imidazol-5-one]	< 5.00	8.05
CC(C)(C)c1nc(-c2cc(OCC(F)(F)F)c(S(C)(=O)=O)cn2)no1 [Example 67, 5-tert-butyl-3-[5-methylsulfonyl-4-(2,2,2-trifluoroethoxy)pyridin-2-yl]-1,2,4-oxadiazole]	< 5.00	6.36
CCC1(C)N=C(c2cc(OCC(F)(F)F)c(C3CC3)cn2)NC1=O (stereo not drawn) [Example 68, 2-[5-cyclopropyl-4-(2,2,2-trifluoroethoxy)pyridin-2-yl]-4-ethyl-4-methyl-1H-imidazol-5-one]	< 5.00	7.14
CC(C)CC1(C)N=C(c2cc(OCC(F)(F)F)c(C3CC3)cn2)NC1=O (stereo not drawn) [Example 69, 2-[5-cyclopropyl-4-(2,2,2-trifluoroethoxy)pyridin-2-yl]-4-methyl-4-(2-methylpropyl)-1H-imidazol-5-one]	< 5.00	8.05
CC(C)(C)c1nc(-c2cc(OCC(F)(F)F)c(Cl)cn2)no1 [Example 70, 5-tert-butyl-3-[5-chloro-4-(2,2,2-trifluoroethoxy)pyridin-2-yl]-1,2,4-oxadiazole]	< 5.00	8.24
FC(F)(F)COc1cc(-c2noc(C3CC3)n2)ncc1Cl [Example 71, 3-[5-chloro-4-(2,2,2-trifluoroethoxy)pyridin-2-yl]-5-cyclopropyl-1,2,4-oxadiazole]	< 5.00	6.55
FC(F)(F)COc1cc(-c2noc(C3CC3)n2)ncc1C1CC1 [Example 72, 5-cyclopropyl-3-[5-cyclopropyl-4-(2,2,2-trifluoroethoxy)pyridin-2-yl]-1,2,4-oxadiazole]	< 5.00	7.34
CC(C)(C)c1nc(-c2cc(N3CCC(O)C3)c(C3CC3)cn2)no1 (stereo not drawn) [Example 73, 1-[2-(5-tert-butyl-1,2,4-oxadiazol-3-yl)-5-cyclopropylpyridin-4-yl]pyrrolidin-3-ol]	< 5.00	7.24
CC(C)(C)c1nc(-c2cc(N3CC(F)(F)C(F)(F)C3)c(C3CC3)cn2)no1 [Example 74, 5-tert-butyl-3-[5-cyclopropyl-4-(3,3,4,4-tetrafluoropyrrolidin-1-yl)pyridin-2-yl]-1,2,4-oxadiazole]	< 5.00	8.33
CC(C)(C)c1nc(-c2cc(Oc3ccc(S(C)(=O)=O)cc3)c(C3CC3)cn2)no1 [Example 75, 5-tert-butyl-3-[5-cyclopropyl-4-(4-methylsulfonylphenoxy)pyridin-2-yl]-1,2,4-oxadiazole]	< 5.00	6.54
CC(C)(C)c1nc(-c2cc(N3CCC(F)(F)C3)c(C3CC3)cn2)no1 [Example 77, 5-tert-butyl-3-[5-cyclopropyl-4-(3,3-difluoropyrrolidin-1-yl)pyridin-2-yl]-1,2,4-oxadiazole]	< 5.00	8.68
CC(C)(C)c1nc(-c2cc(N3CCOCC3)c(C3CC3)cn2)no1 [Example 78, 4-[2-(5-tert-butyl-1,2,4-oxadiazol-3-yl)-5-cyclopropylpyridin-4-yl]morpholine]	< 5.00	7.37
CC(C)(C)c1nc(-c2cc(N3CCCC3)c(C3CC3)cn2)no1 [Example 79, 5-tert-butyl-3-(5-cyclopropyl-4-pyrrolidin-1-ylpyridin-2-yl)-1,2,4-oxadiazole]	< 5.00	8.05
CC(C)(C)c1nc(-c2cc(S(=O)(=O)C3CC3)c(C3CC3)cn2)no1 [Example 80, 5-tert-butyl-3-(5-cyclopropyl-4-cyclopropylsulfonylpyridin-2-yl)-1,2,4-oxadiazole]	< 5.00	7.32
COC1CN(c2cc(-c3noc(C(C)(C)C)n3)ncc2C2CC2)C1 [Example 81, 5-tert-butyl-3-[5-cyclopropyl-4-(3-methoxyazetidin-1-yl)pyridin-2-yl]-1,2,4-oxadiazole]	< 5.00	7.68

Structure (SMILES)	pEC50 (human CB1 receptors)	pEC50 (human CB2 receptors)
CC(C)(C)c1nc(-c2cc(N3CC4(COC4)C3)c(C3CC3)cn2)no1 [Example 82, 6-[2-(5-tert-butyl-1,2,4-oxadiazol-3-yl)-5-cyclopropylpyridin-4-yl]-2-oxa-6-azaspiro[3.3]heptane]	< 5.00	7.42
CCOCCOc1cc(-c2noc(C(C)(C)C)n2)ncc1C1CC1 [Example 83, 5-tert-butyl-3-[5-cyclopropyl-4-(2-ethoxyethoxy)pyridin-2-yl]-1,2,4-oxadiazole]	< 5.00	7.52
CCC(COC)Oc1cc(-c2noc(C(C)(C)C)n2)ncc1C1CC1 (stereo not drawn) [Example 84, 5-tert-butyl-3-[5-cyclopropyl-4-(1-methoxybutan-2-yloxy)pyridin-2-yl]-1,2,4-oxadiazole]	< 5.00	7.30
COCC(C)Oc1cc(-c2noc(C(C)(C)C)n2)ncc1C1CC1 (stereo not drawn) [Example 87, 5-tert-butyl-3-[5-cyclopropyl-4-(1-methoxypropan-2-yloxy)pyridin-2-yl]-1,2,4-oxadiazole]	< 5.00	6.95
CC(C)(C)c1nc(-c2cc(OC3CCCOC3)c(C3CC3)cn2)no1 (stereo not drawn) [Example 88, 5-tert-butyl-3-[5-cyclopropyl-4-(oxan-3-yloxy)pyridin-2-yl]-1,2,4-oxadiazole]	< 5.00	7.28
COC(C)CCOc1cc(-c2noc(C(C)(C)C)n2)ncc1C1CC1 (stereo not drawn) [Example 89, 5-tert-butyl-3-[5-cyclopropyl-4-(3-methoxybutoxy)pyridin-2-yl]-1,2,4-oxadiazole]	< 5.00	7.79
CC(C)(C)c1nc(-c2cc(OCC3COC3)c(C3CC3)cn2)no1 [Example 90, 5-tert-butyl-3-[5-cyclopropyl-4-(oxetan-3-ylmethoxy)pyridin-2-yl]-1,2,4-oxadiazole]	< 5.00	7.93
C[C@H](Oc1cc(-c2noc(C3CC3)n2)ncc1C1CC1)C(F)(F)F [Example 91, 5-cyclopropyl-3-[5-cyclopropyl-4-[(2S)-1,1,1-trifluoropropan-2-yl]oxypyridin-2-yl]-1,2,4-oxadiazole]	< 5.00	6.19
CCN1CCC(Oc2cc(-c3noc(C(C)(C)C)n3)ncc2C2CC2)C1 (stereo not drawn) [Example 92, 5-tert-butyl-3-[5-cyclopropyl-4-(1-ethylpyrrolidin-3-yl)oxypyridin-2-yl]-1,2,4-oxadiazole]	6.11	7.12
CC(C)(C)c1nc(-c2cc(OCCN3CCCC3)c(C3CC3)cn2)no1 [Example 94, 5-tert-butyl-3-[5-cyclopropyl-4-(2-pyrrolidin-1-ylethoxy)pyridin-2-yl]-1,2,4-oxadiazole]	< 5.00	7.22
CC(C)(C)c1nc(-c2cc(OCCN3CCCCC3)c(C3CC3)cn2)no1 [Example 95, 5-tert-butyl-3-[5-cyclopropyl-4-(2-piperidin-1-ylethoxy)pyridin-2-yl]-1,2,4-oxadiazole]	< 5.00	7.58
CC(CN1CCCCC1)Oc1cc(-c2noc(C(C)(C)C)n2)ncc1C1CC1 (stereo not drawn) [Example 96, 5-tert-butyl-3-[5-cyclopropyl-4-(1-piperidin-1-ylpropan-2-yloxy)pyridin-2-yl]-1,2,4-oxadiazole]	5.99	7.12
CN1CCCCC1COc1cc(-c2noc(C(C)(C)C)n2)ncc1C1CC1 (stereo not drawn) [Example 97, 5-tert-butyl-3-[5-cyclopropyl-4-[(1-methylpiperidin-2-yl)methoxy]pyridin-2-yl]-1,2,4-oxadiazole]	< 5.00	7.72
CC(C)(C)c1nnc(-c2cc(OC3CCOCC3)c(C3CC3)cn2)o1 [Example 98, 2-tert-butyl-5-[5-cyclopropyl-4-(oxan-4-yloxy)pyridin-2-yl]-1,3,4-oxadiazole]	< 5.00	7.38
CN1CCCC(Oc2cc(-c3noc(C(C)(C)C)n3)ncc2C2CC2)C1 (stereo not drawn) [Example 99, 5-tert-butyl-3-[5-cyclopropyl-4-(1-methylpiperidin-3-yl)oxypyridin-2-yl]-1,2,4-oxadiazole]	< 5.00	6.50
CCN1CCCC(Oc2cc(-c3noc(C(C)(C)C)n3)ncc2C2CC2)C1 (stereo not drawn) [Example 100, 5-tert-butyl-3-[5-cyclopropyl-4-(1-ethylpiperidin-3-yl)oxypyridin-2-yl]-1,2,4-oxadiazole]	< 5.00	6.29
